According to publication PMC7914897, “Cytotoxic Potential of a-Azepano- and 3-Amino-3,4-SeCo-Triterpenoids” (International Journal of Molecular Sciences, 2021):
Where two headings read alike, the source gives them in different places.

How the values were obtained:
SK-MEL-28 (Melanoma) = experiment: NCI-60 screen (SRB, 48 h); details: Homo sapiens
A498 (Renal cancer) = experiment: NCI-60 screen (SRB, 48 h); details: Homo sapiens
DU-145 (Prostate cancer) = experiment: NCI-60 screen (SRB, 48 h); details: Homo sapiens
CAKI-1 (Renal cancer) = experiment: NCI-60 screen (SRB, 48 h)
SW-620 (Colon cancer) = experiment: NCI-60 screen (SRB, 48 h); details: Homo sapiens
COLO 205 (Colon cancer) = experiment: NCI-60 screen (SRB, 48 h); details: Homo sapiens
T-47D (Breast cancer) = experiment: NCI-60 screen (SRB, 48 h); details: Homo sapiens, T47D
[1] = system: NCI-H226 (NSC lung cancer); experiment: NCI-60 screen (SRB, 48 h); details: Homo sapiens
UO-31 (Renal cancer) = experiment: NCI-60 screen (SRB, 48 h); details: Homo sapiens
CNS cancer subpanel = experiment: NCI-60 screen, subpanel; details: Homo sapiens
SF-295 (CNS cancer) = experiment: NCI-60 screen (SRB, 48 h); details: Homo sapiens
[2] = system: panel of approximately 60 cancer cell lines; experiment: NCI-60 screen (SRB, 48 h), full panel
OVCAR-3 (Ovarian cancer) = experiment: cells; details: Homo sapiens
Colon Cancer subpanel = experiment: NCI-60 screen, subpanel; details: Homo sapiens
Ovarian Cancer subpanel = experiment: NCI-60 screen, subpanel; details: Homo sapiens
HOP-92 (NSC lung cancer) = experiment: NCI-60 screen (SRB, 48 h); details: Homo sapiens
MOLT-4 (Leukemia) = experiment: NCI-60 screen (SRB, 48 h); details: Homo sapiens
SK-OV-3 (Ovarian cancer) = experiment: NCI-60 screen (SRB, 48 h); details: Homo sapiens
CCRF-CEM (Leukemia) = experiment: NCI-60 screen (SRB, 48 h); details: Homo sapiens
OVCAR-5 (Ovarian cancer) = experiment: NCI-60 screen (SRB, 48 h); details: Homo sapiens
EKVX (NSC lung cancer) = experiment: NCI-60 screen (SRB, 48 h); details: Homo sapiens
[3] = system: NCI-H322M (NSC lung cancer); experiment: NCI-60 screen (SRB, 48 h); details: Homo sapiens
HOP-62 (NSC lung cancer) = experiment: NCI-60 screen (SRB, 48 h); details: Homo sapiens
M14 (Melanoma) = experiment: NCI-60 screen (SRB, 48 h); details: Homo sapiens
Renal Cancer subpanel = experiment: NCI-60 screen, subpanel; details: Homo sapiens
SNB-75 (CNS cancer) = experiment: NCI-60 screen (SRB, 48 h); details: Homo sapiens
HT29 (Colon cancer) = experiment: NCI-60 screen (SRB, 48 h); details: Homo sapiens

**Q.** What does the source list for `CC1(C)CC[C@]23CC[C@]4(C)[C@H](CC[C@@H]5[C@@]6(C)CCCNC(C)(C)[C@@H]6CC[C@]54C)[C@H]2[C@H]1OC3` [Compound 7, Azepanoallobetulin]?
**A.** GI50 (SK-MEL-28 (Melanoma); SK-MEL-28): 1.66 µM; IC (TGI) (SK-MEL-28 (Melanoma); SK-MEL-28, 48 h, read-out: TGI): 3.18 µM; CC50 (SK-MEL-28 (Melanoma); SK-MEL-28, read-out: LC50): 6.07 µM; GI50 (A498 (Renal cancer); A498): 1.68 µM; IC (TGI) (A498 (Renal cancer); A498, 48 h, read-out: TGI): 3.67 µM; CC50 (A498 (Renal cancer); A498, read-out: LC50): 8 µM; GI50 (DU-145 (Prostate cancer); DU-145): 1.74 µM; IC (TGI) (DU-145 (Prostate cancer); DU-145, 48 h, read-out: TGI): 3.23 µM; CC50 (DU-145 (Prostate cancer); DU-145, read-out: LC50): 6 µM; Growth % of the Most Sensitive Cell Lines (CAKI-1 (Renal cancer); CAKI-1, 1 dose 10 µM): −92.03%; GI50 (CAKI-1 (Renal cancer); Homo sapiens, CAKI-1): 1.62 µM; IC (TGI) (CAKI-1 (Renal cancer); Homo sapiens, CAKI-1, 48 h, read-out: TGI): 2.97 µM; CC50 (CAKI-1 (Renal cancer); Homo sapiens, CAKI-1, read-out: LC50): 5.45 µM; GI50 (SW-620 (Colon cancer); SW-620): 1.75 µM; IC (TGI) (SW-620 (Colon cancer); SW-620, 48 h, read-out: TGI): 3.49 µM; CC50 (SW-620 (Colon cancer); SW-620, read-out: LC50): 6.95 µM; GI50 (COLO 205 (Colon cancer); COLO 205): 1.28 µM; IC (TGI) (COLO 205 (Colon cancer); COLO 205, 48 h, read-out: TGI): 2.68 µM; CC50 (COLO 205 (Colon cancer); COLO 205, read-out: LC50): 5.61 µM; GI50 (T-47D (Breast cancer)): 1.71 µM; IC (TGI) (T-47D (Breast cancer); 48 h, read-out: TGI): 3.69 µM; CC50 (T-47D (Breast cancer); read-out: LC50): 7.99 µM; GI50 ([1]; NCI-H226): 1.7 µM; IC (TGI) ([1]; NCI-H226, 48 h, read-out: TGI): 3.47 µM; CC50 ([1]; NCI-H226, read-out: LC50): 7.09 µM; GI50 (UO-31 (Renal cancer); UO-31): 1.56 µM; IC (TGI) (UO-31 (Renal cancer); UO-31, 48 h, read-out: TGI): 3 µM; CC50 (UO-31 (Renal cancer); UO-31, read-out: LC50): 5.77 µM; IC (TGI) (CNS cancer subpanel; 48 h, read-out: TGI MG_MID): 3.51 µM; GI50 (CNS cancer subpanel; read-out: GI50 MG_MID): 1.58 µM; CC50 (CNS cancer subpanel; read-out: LC50 MG_MID): 10.2 µM; GI50 (SF-295 (CNS cancer); SF-295): 1.7 µM; IC (TGI) (SF-295 (CNS cancer); SF-295, 48 h, read-out: TGI): 3.19 µM; CC50 (SF-295 (CNS cancer); SF-295, read-out: LC50): 5.99 µM; Positive Cytostatic Effect (cell lines with percent growth 0 to 50 / total) ([2]; 1 dose 10 µM): 16/59; Positive Cytotoxic Effect (cell lines with percent growth < 0 / total) ([2]; 1 dose 10 µM): 41/58; number of cancer cell lines the compound was active against ([2]; 1 dose 10 µM): 52 cell lines; activity at 10 µM ([2]; Homo sapiens, 48 h, read-out: Mean Growth, %): -27.3%; activity at 10 µM ([2]; Homo sapiens, 48 h, read-out: Range of Growth, %): -99.4 to 76.4%; IC (TGI) ([2]; Homo sapiens, 48 h, read-out: TGI MG_MID60, average over all cell lines): 3.64 µM; GI50 ([2]; Homo sapiens, read-out: GI50 MG_MID60): 1.68 µM; GI50 ([2]; Homo sapiens, read-out: GI50 against all human tumor cell lines): < 3 µM; GI50 ([2]; Homo sapiens, read-out: GI50 against the most sensitive cell lines): 0.2 to 0.94 µM; CC50 ([2]; Homo sapiens, read-out: LC50 MG_MID60, average over all cell lines): 17.2 µM; GI50 (OVCAR-3 (Ovarian cancer); OVCAR-3): 1.62 µM; IC (TGI) (OVCAR-3 (Ovarian cancer); OVCAR-3, 48 h, read-out: TGI): 3.1 µM; CC50 (OVCAR-3 (Ovarian cancer); OVCAR-3, read-out: LC50): 5.94 µM; IC (TGI) (Colon Cancer subpanel; 48 h, read-out: TGI MG_MID): 3.11 µM; GI50 (Colon Cancer subpanel; read-out: GI50 MG_MID): 1.58 µM; CC50 (Colon Cancer subpanel; read-out: LC50 MG_MID): 6.11 µM; IC (TGI) (Ovarian Cancer subpanel; 48 h, read-out: TGI MG_MID): 3.99 µM; GI50 (Ovarian Cancer subpanel; read-out: GI50 MG_MID): 1.86 µM; CC50 (Ovarian Cancer subpanel; read-out: LC50 MG_MID): 12.3 µM; GI50 (HOP-92 (NSC lung cancer); HOP-92): 1.41 µM; IC (TGI) (HOP-92 (NSC lung cancer); HOP-92, 48 h, read-out: TGI): 2.96 µM; GI50 (MOLT-4 (Leukemia); MOLT-4): 2.1 µM; IC (TGI) (MOLT-4 (Leukemia); MOLT-4, 48 h, read-out: TGI): 5.04 µM; CC50 (MOLT-4 (Leukemia); MOLT-4, read-out: LC50): 74.8 µM; GI50 (SK-OV-3 (Ovarian cancer); SK-OV-3): 2.73 µM; IC (TGI) (SK-OV-3 (Ovarian cancer); SK-OV-3, 48 h, read-out: TGI): 7.93 µM; CC50 (SK-OV-3 (Ovarian cancer); SK-OV-3, read-out: LC50): 36.9 µM; GI50 (CCRF-CEM (Leukemia)): 2.32 µM; IC (TGI) (CCRF-CEM (Leukemia); 48 h, read-out: TGI): 6.73 µM; CC50 (CCRF-CEM (Leukemia); read-out: LC50): > 100 µM; GI50 (OVCAR-5 (Ovarian cancer); OVCAR-5): 1.6 µM; IC (TGI) (OVCAR-5 (Ovarian cancer); OVCAR-5, 48 h, read-out: TGI): 3.04 µM; CC50 (OVCAR-5 (Ovarian cancer); OVCAR-5, read-out: LC50): 5.8 µM; GI50 (EKVX (NSC lung cancer)): 1.68 µM; IC (TGI) (EKVX (NSC lung cancer); 48 h, read-out: TGI): 3.37 µM; CC50 (EKVX (NSC lung cancer); read-out: LC50): 6.77 µM; GI50 [3]: 1.64 µM; IC (TGI) ([3]; 48 h, read-out: TGI): 3.03 µM; CC50 ([3]; read-out: LC50): 5.6 µM; GI50 (HOP-62 (NSC lung cancer); HOP-62): 1.91 µM; IC (TGI) (HOP-62 (NSC lung cancer); HOP-62, 48 h, read-out: TGI): 3.75 µM; CC50 (HOP-62 (NSC lung cancer); HOP-62, read-out: LC50): 7.34 µM; GI50 (M14 (Melanoma); M14): 1.77 µM; IC (TGI) (M14 (Melanoma); M14, 48 h, read-out: TGI): 3.31 µM; CC50 (M14 (Melanoma); M14, read-out: LC50): 6.19 µM; IC (TGI) (Renal Cancer subpanel; 48 h, read-out: TGI MG_MID): 3.22 µM; GI50 (Renal Cancer subpanel; read-out: GI50 MG_MID): 1.67 µM; CC50 (Renal Cancer subpanel; read-out: LC50 MG_MID): 6.21 µM; GI50 (SNB-75 (CNS cancer); SNB-75): 1.5 µM; IC (TGI) (SNB-75 (CNS cancer); SNB-75, 48 h, read-out: TGI): 2.94 µM; CC50 (SNB-75 (CNS cancer); SNB-75, read-out: LC50): 5.76 µM; GI50 (HT29 (Colon cancer); HT-29): 1.78 µM; IC (TGI) (HT29 (Colon cancer); HT-29, 48 h, read-out: TGI): 3.63 µM; CC50 (HT29 (Colon cancer); HT-29, read-out: LC50): 7.42 µM
